Experimental data taken from patent US20250313572A1, “MACROCYCLIC MCL-1 INHIBITORS AND METHODS OF USE” (AbbVie Inc., priority 2017, published 2025).
Read-outs that look alike come from different tables or passages of the source.

What was measured:
GST-MCL-1 = GST-MCL-1 (Homo sapiens, UniProt Q07820); assay: TR-FRET MCL-1 binding assay (competition with probe F-Bak)
Experimental: Tb-anti-GST antibody was purchased from Invitrogen (Catalog No. PV4216).
For the assay, an acoustic dispenser was used to prepare dilution series from 10 mM test compounds in 100% DMSO and directly transfer 160 nL into low volume 384-well assay plates. 8 μL of a protein/probe/antibody mix was then added to each well resulting in final concentrations listed below: • Test compound: 11 three-fold dilutions beginning at 25 μM
The samples were then mixed on a shaker for 1 minute and incubated for an additional 2 hours at room temperature. For each assay plate, a probe/antibody and protein/antibody/probe mixture were included as a negative and a positive control, respectively. Fluorescence was measured on the Envision (Perkin Elmer) using a 340/35 nm excitation filter and 520/525 (F-Bak) and 495/510 nm (Tb-labeled anti-his antibody) emission filters. […] The TR-FRET assay can be performed in the presence of varying concentrations of human serum (HS) or fetal bovine serum (FBS). Compounds were tested both without HS and in the presence of 10% HS.

[1] = tested on: AMO-1 human multiple myeloma tumor cell line; assay: AMO-1 cell viability assay (CellTiter-Glo, 24 hours); assay type: cell-based; settings: Homo sapiens, AMO1, 24 h, read-out: AMO-1 Viability IC50 (μM, 10% FBS), 10% FBS, 24 hours of compound treatment
[2] = tested on: NCI-H929 human multiple myeloma tumor cell line; assay: NCI-H929 cell viability assay (CellTiter-Glo, 24 hours); assay type: cell-based; settings: Homo sapiens, NCI-H929, 24 h, read-out: H929 Viability IC50 (μM, 10% FBS), 10% FBS, 24 hours of compound treatment
[3] = MCL-1 Binding Ki (nM, 10% HS), in the presence of 10% HS (human serum)
[4] = without HS, read-out: MCL-1 Binding Ki

Chain of GST-MCL-1 (Q07820 whole entry): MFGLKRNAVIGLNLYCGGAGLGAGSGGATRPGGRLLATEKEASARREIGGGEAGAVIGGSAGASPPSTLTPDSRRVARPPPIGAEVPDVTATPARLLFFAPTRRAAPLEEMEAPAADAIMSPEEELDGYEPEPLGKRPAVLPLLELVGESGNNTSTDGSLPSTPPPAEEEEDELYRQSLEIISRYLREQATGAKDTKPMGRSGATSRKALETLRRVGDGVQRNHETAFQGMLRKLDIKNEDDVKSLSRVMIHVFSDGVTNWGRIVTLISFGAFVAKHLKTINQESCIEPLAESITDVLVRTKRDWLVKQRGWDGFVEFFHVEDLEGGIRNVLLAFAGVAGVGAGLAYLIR

| Compound | Ki (GST-MCL-1; [3]) | Ki (GST-MCL-1; [4]) | IC50 [1] | IC50 [2] |
| --- | --- | --- | --- | --- |
| COCCOCCO[C@]1(c2nccc(COc3ccc4cc3C[C@H](C(=O)O)Oc3ncnc5sc(-c6ccc(F)cc6)c(c35)-c3c(C)c(Cl)c(c(Cl)c3C)O[C@H](CN3CCN(C)CC3)CO4)n2)CC[C@@H](OCC2COCCO2)CC1 (stereo partly drawn) [Example 121, (7R,16R)-19,23-dichloro-10-[(2-{(1r,4r)-4-[(1,4-dioxan-2-yl)methoxy]-1-[2-(2-methoxyethoxy)ethoxy]cyclohexyl}pyrimidin-4-yl)methoxy]-1-(4-fluorophenyl)-20,22-dimethyl-16-[(4-methylpiperazin-1-yl)methyl]-7,8,15,16-tetrahydro-18,21-etheno-9,13-(metheno)-6,14,17-trioxa-2-thia-3,5-diazacyclononadeca[1,2,3-cd]indene-7-carboxylic Acid] | 0.231 nM | 0.052 nM | 0.00508 µM | 0.00956 µM |
| Cc1c(Cl)c2c(Cl)c(C)c1-c1c(-c3ccc(F)cc3)sc3ncnc(c13)O[C@@H](C(=O)O)Cc1cc(ccc1OCc1ccnc([C@H]3CC[C@@H](CC(=O)O)CC3)n1)OC[C@@H](CN1CCN(C)CC1)O2 [Example 31, (7R,16R)-10-({2-[(1 s,4s)-4-(carboxymethyl)cyclohexyl]pyrimidin-4-yl}methoxy)-19,23-dichloro-1-(4-fluorophenyl)-20,22-dimethyl-16-[(4-methylpiperazin-1-yl)methyl]-7,8,15,16-tetrahydro-18,21-etheno-13,9-(metheno)-6,14,17-trioxa-2-thia-3,5-diazacyclononadeca[1,2,3-cd]indene-7-carboxylic Acid] | 0.049 nM | 0.004 nM | 0.00743 µM | 0.0133 µM |
| COCCOCCOC[C@@]1(F)CC=C(c2nccc(COc3ccc4cc3C[C@H](C(=O)O)Oc3ncnc5sc(C6=CCCC6)c(c35)-c3c(C)c(Cl)c(c(Cl)c3C)O[C@H](CN3CCN(C)CC3)CO4)n2)CC1 (relative stereo) [Example 135, (7R,16R)-19,23-dichloro-1-(cyclopent-1-en-1-yl)-10-({2-[(4S*)-4-fluoro-4-{[2-(2-methoxyethoxy)ethoxy]methyl}cyclohex-1-en-1-yl]pyrimidin-4-yl}methoxy)-20,22-dimethyl-16-[(4-methylpiperazin-1-yl)methyl]-7,8,15,16-tetrahydro-18,21-etheno-13,9-(metheno)-6,14,17-trioxa-2-thia-3,5-diazacyclononadeca[1,2,3-cd]indene-7-carboxylic Acid] | 0.489 nM | 0.029 nM | 0.000191 µM | 0.000591 µM |
| COCCOCCOCCOCCOCCOCC1(c2nccc(COc3ccc4cc3C[C@H](C(=O)O)Oc3ncnc5sc(-c6ccc(F)cc6)c(c35)-c3c(C)c(Cl)c(c(Cl)c3C)O[C@H](CN3CCN(C)CC3)CO4)n2)CCCCC1 [Example 88, (7R,16R)-19,23-dichloro-1-(4-fluorophenyl)-10-({2-[1-(2,5,8,11,14,17-hexaoxaoctadecan-1-yl)cyclohexyl]pyrimidin-4-yl}methoxy)-20,22-dimethyl-16-[(4-methylpiperazin-1-yl)methyl]-7,8,15,16-tetrahydro-18,21-etheno-13,9-(metheno)-6,14,17-trioxa-2-thia-3,5-diazacyclononadeca[1,2,3-cd]indene-7-carboxylic Acid] | 0.143 nM | 0.033 nM | 0.00117 µM | 0.00206 µM |
| Cc1c(Cl)c2c(Cl)c(C)c1-c1c(-c3ccc(F)cc3)sc3ncnc(c13)O[C@@H](C(=O)O)Cc1cc(ccc1OCc1ccnc(N3CCO[C@H](COCCOCC4COCCO4)C3)n1)OC[C@@H](CN1CCN(C)CC1)O2 (stereo partly drawn) [Example 103, (7R,16R)-19,23-dichloro-10-({2-[(2S)-2-({2-[(1,4-dioxan-2-yl)methoxy]ethoxy}methyl)morpholin-4-yl]pyrimidin-4-yl}methoxy)-1-(4-fluorophenyl)-20,22-dimethyl-16-[(4-methylpiperazin-1-yl)methyl]-7,8,15,16-tetrahydro-18,21-etheno-13,9-(metheno)-6,14,17-trioxa-2-thia-3,5-diazacyclononadeca[1,2,3-cd]indene-7-carboxylic Acid] | 0.172 nM | 0.033 nM | 0.000281 µM | 0.000578 µM |
